According to patent US11091471B2, “Isoxazolyl ether derivatives as GABAA α5 PAM” (Hoffmann-La Roche Inc., priority 2016, dated 2021):

Molecular target: h-GABA-A α5β3γ2 (Homo sapiens (Human), UniProt P18507+P31644)
Experiment: Two-electrode voltage clamp electrophysiology in Xenopus oocytes expressing GABAA receptors, modulation of GABA EC20 current
Assay type: cell-based
Description: Xenopus laevis oocytes at maturation stages V-VI were used for the expression of cloned mRNA encoding GABAA receptor subunits. Oocytes ready for RNA micro-injection were bought from Ecocyte, Castrop-Rauxel, Germany and stored in modified Barth's medium (composition in mM: NaCl 88, KCl 1, NaHCO3 2.4, HEPES 10, MgSO4 0.82, CaNO3 0.33, CaCl2 0.33, pH=7.5) at 20° C. until the experiment.
Oocytes were plated in 96-well plates to be used in an automated instrument (Robo-ocyte, MultiChannelSystems, Reutlingen, Germany) for microinjection and electrophysiological recordings. Approximately 50 nl of an aqueous solution containing the RNA transcripts for the subunits of the desired GABAA receptor was injected into each oocyte.
Electrophysiological experiments were performed on days 3 to 5 after the micro-injection of mRNA. During the experiment the oocytes were constantly superfused by a solution containing (in mM) NaCl 90, KCl 1, HEPES 5, MgCl2 1, CaCl2 1 (pH 7.4). Oocytes were impaled by two glass microelectrodes (resistance: 0.4 MΩ) which were filled with a solution containing KCl 1M+K-acetate 1.5 M and voltage-clamped to −80 mV. The recordings were performed at room temperature using the Roboocyte two-electrode voltage clamp system (Multichannelsystem). After an initial equilibration period of 1.5 min GABA was added for 1.5 min at a concentration evoking approximately 20% of a maximal current response (EC20). After another rest interval of 2.5 min GABA was again added evoking a response of similar amplitude and shape. […] Current traces were recorded at a digitization rate of 10 Hz during and shortly before and after the GABA application.
Each compound and concentration was tested on at least 3 oocytes.
For the analysis, the digitized current traces of the first and second GABA response were superimposed and, if necessary, rescaled to equal maximal amplitudes. The ratio between the two responses during the time interval of test compound application was calculated point by point. The extremum of the resulting “ratio trace” was taken as the efficacy (“Fold increase”) of the compound expressed as “% modulation of GABA EC20” (100*(Fold increase−1)).

[1] = Table 1, GABA at EC20, test compound at approx. 30 fold its Ki, Xenopus oocytes
[2] = Table 2, reference compounds, % modulation of GABA EC20
[3] = Table 2, reference compounds, GABAA α5β3γ2 overexpressing oocytes

h-GABA-A α5β3γ2, sequence (P31644 32-462): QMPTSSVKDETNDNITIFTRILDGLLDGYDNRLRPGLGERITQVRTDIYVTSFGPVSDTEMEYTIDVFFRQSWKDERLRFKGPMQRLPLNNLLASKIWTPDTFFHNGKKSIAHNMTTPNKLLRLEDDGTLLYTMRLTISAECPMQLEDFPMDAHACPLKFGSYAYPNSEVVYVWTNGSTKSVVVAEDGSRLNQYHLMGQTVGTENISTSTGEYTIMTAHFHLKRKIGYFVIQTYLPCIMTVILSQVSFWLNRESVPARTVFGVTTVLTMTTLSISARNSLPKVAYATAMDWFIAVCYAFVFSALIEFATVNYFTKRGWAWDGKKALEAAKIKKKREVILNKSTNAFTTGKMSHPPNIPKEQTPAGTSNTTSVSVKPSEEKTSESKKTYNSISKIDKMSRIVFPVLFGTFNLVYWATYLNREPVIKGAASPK
h-GABA-A α5β3γ2, sequence (P28472 26-473 partner): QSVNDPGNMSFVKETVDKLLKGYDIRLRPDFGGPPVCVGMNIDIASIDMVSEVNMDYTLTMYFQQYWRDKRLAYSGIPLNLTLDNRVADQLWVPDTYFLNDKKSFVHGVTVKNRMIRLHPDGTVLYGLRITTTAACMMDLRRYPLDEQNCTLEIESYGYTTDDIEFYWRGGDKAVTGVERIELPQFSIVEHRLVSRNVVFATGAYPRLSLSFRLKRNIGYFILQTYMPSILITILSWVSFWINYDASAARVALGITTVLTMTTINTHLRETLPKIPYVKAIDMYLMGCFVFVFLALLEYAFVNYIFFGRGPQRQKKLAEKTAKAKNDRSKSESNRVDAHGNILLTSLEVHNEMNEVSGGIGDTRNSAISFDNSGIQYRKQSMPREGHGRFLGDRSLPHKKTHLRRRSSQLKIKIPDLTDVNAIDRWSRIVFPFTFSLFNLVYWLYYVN
h-GABA-A α5β3γ2, sequence (P18507 40-475): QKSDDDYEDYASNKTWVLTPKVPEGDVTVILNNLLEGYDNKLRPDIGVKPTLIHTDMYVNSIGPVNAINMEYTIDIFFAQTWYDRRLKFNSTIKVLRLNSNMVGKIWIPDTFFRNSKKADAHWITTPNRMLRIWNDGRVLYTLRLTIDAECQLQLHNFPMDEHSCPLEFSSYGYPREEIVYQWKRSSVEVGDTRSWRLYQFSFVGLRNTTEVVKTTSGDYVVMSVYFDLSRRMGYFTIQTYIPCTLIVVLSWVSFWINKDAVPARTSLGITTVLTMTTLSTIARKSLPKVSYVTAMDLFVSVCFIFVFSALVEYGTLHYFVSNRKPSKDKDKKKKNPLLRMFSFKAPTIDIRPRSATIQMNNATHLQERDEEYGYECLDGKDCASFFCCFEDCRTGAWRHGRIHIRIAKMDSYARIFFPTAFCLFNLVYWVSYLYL

Row | SMILES | Fold increase h-GABA-A α5β3γ2 oocyte [1] | further results
1 | CCc1onc(-c2ccc(C)nc2)c1COc1ccc(C(=O)NC2CCS(=O)(=O)CC2)cn1 [Example 120, N-(1,1-dioxidotetrahydro-2H-thiopyran-4-yl)-6-((5-ethyl-3-(6-methylpyridin-3-yl)isoxazol-4-yl)methoxy)pyridine-3-carboxamide] | 2.6 | –
2 | Cc1ccc(-c2noc(C)c2COc2cnc(C(=O)NC3CCC(F)(F)CC3)cn2)cn1 [Example 86, N-(4,4-difluorocyclohexyl)-5-((5-methyl-3-(6-methyl-3-pyridyl)isoxazol-4-yl)methoxy)pyrazine-2-carboxamide] | 2.2 | –
3 | Cc1ccc(-c2noc(C)c2COc2ccc(C(=O)NC3CC4(COC4)C3)nn2)cn1 [Example 100, 6-((5-methyl-3-(6-methylpyridin-3-yl)isoxazol-4-yl)methoxy)-N-(2-oxaspiro[3.3]heptan-6-yl)pyridazine-3-carboxamide] | 1.7 | –
4 | Cc1onc(-c2ccc(Cl)nc2)c1COc1ccc(C(=O)NC2(C)COC2)nn1 [Example 161, 6-((3-(6-chloropyridin-3-yl)-5-methylisoxazol-4-yl)methoxy)-N-(3-methyloxetan-3-yl)pyridazine-3-carboxamide] | 1.6 | –
5 | Cc1ccc(-c2noc(C)c2COc2ccc(C(=O)N[C@H]3CCOC3)nn2)cn1 [Example 87, (S)-6-((5-methyl-3-(6-methylpyridin-3-yl)isoxazol-4-yl)methoxy)-N-(tetrahydrofuran-3-yl)pyridazine-3-carboxamide] | 1.8 | –
6 | Cc1ccc(-c2noc(C)c2COc2ccc(C(=O)N[C@@H]3CC[C@@H](OCC(F)F)C3)nn2)cn1 [Example 191, N-((1R,3R)-3-(2,2-difluoroethoxy)cyclopentyl)-6-((5-methyl-3-(6-methylpyridin-3-yl)isoxazol-4-yl)methoxy)pyridazine-3-carboxamide] | 1.6 | –
7 | Cc1onc(-c2ccccn2)c1COc1ccc(C(=O)NC2CCOCC2)cn1 [RO-272, reference compound] | – | Efficacy (GABA) % [2]: −32%; Fold increase h-GABA-A α5β3γ2 oocyte [3]: 0.68
8 | Cc1ccc(-c2noc(C)c2COc2ccc(C(=O)NC3CCOCC3)cn2)nn1 [Example 108, 6-((5-methyl-3-(6-methylpyridazin-3-yl)isoxazol-4-yl)methoxy)-N-tetrahydropyran-4-yl-pyridine-3-carboxamide] | 1.2 | –
9 | Cc1ccc(-c2noc(C)c2COc2ccc(C(N)=O)cn2)cn1 [Example 17, 6-((5-methyl-3-(6-methylpyridin-3-yl)isoxazol-4-yl)methoxy)nicotinamide] | 1.6 | –
10 | Cc1onc(-c2ccccn2)c1COc1ccc(C(=O)NC2CCOCC2)nn1 [RO-094, reference compound] | – | Efficacy (GABA) % [2]: −18%; Fold increase h-GABA-A α5β3γ2 oocyte [3]: 0.82
11 | Cc1ccc(-c2noc(C)c2COc2ccc(C(=O)N[C@H]3CCCOC3)nn2)cn1 [Example 103, (S)-6-((5-methyl-3-(6-methylpyridin-3-yl)isoxazol-4-yl)methoxy)-N-(tetrahydropyran-3-yl)pyridazine-3-carboxamide] | – | Efficacy (GABA) % (Table 1, % modulation of GABA EC20 = 100*(Fold increase−1)): 81%
12 | Cc1ncc2n1-c1ccc(Cl)cc1C(c1ccccc1F)=NC2 [Midazolam, reference compound] | – | potentiation of the GABA-induced current (positive control (PAM) at a maximally effective concentration): ~150%; Fold increase (positive control at a maximally effective concentration, 3-6 oocytes per 96-well plate): ~2.5
13 | Cc1ccc(-c2noc(C)c2COc2ccc(C(=O)N[C@@]3(C)CCOC3)nn2)cn1 [Example 81, (S)-6-((5-methyl-3-(6-methylpyridin-3-yl)isoxazol-4-yl)methoxy)-N-(3-methyltetrahydrofuran-3-yl)pyridazine-3-carboxamide] | 1.8 | –
14 | Cc1onc(-c2cccnc2)c1COc1ccc(C(=O)NC2CCOCC2)cn1 [RO-159, reference compound] | – | Efficacy (GABA) % [2]: −12%; Fold increase h-GABA-A α5β3γ2 oocyte [3]: 0.88
15 | Cc1ncc(-c2noc(C)c2COc2ccc(C(=O)NC3CCOCC3)cn2)cc1F [Example 143, 6-((3-(5-fluoro-6-methyl-3-pyridyl)-5-methyl-isoxazol-4-yl)methoxy)-N-tetrahydropyran-4-yl-pyridine-3-carboxamide] | 1.2 | –
